According to US12036319B2, “Polyvalent sting activating compositions and uses thereof” (The Board of Regents of the University of Texas System, priority 2020, dated 2024):

Legend:
[1] = tested on: mutant STING-GFP in HEK293T cells; test: Downstream STING activation in HEK293T cells transfected with mutant STING plasmids; format: cell-based, human
Text: (§1) WT or R232H THP-1 reporter cells were purchased from Invitrogen.
(§2) Microscopy. […] In STING degradation assay, LysoTracker Red DND-99 (Thermo Scientific) was used to stain lysosomes in live cells. […] Samples were mounted in prolong gold antifade with Dapi stain (Thermo Scientific) and imaged using a Zeiss 700 confocal laser scanning microscope with a 63× oil objective. ImageJ was used to quantify co-localization by Pearson's correlation coefficient. Data are representative of at least twenty cells.
(§3) RT-qPCR. Total RNAs were extracted from cells or human tissues by using RNeasy mini kit (QIAGEN). RNA quantity and quality were confirmed using NanoDrop (DeNovix DS-11). Genomic DNA was removed and cDNA was synthesized using an iScript™ gDNA clear cDNA synthesis kit (Bio-Rad). Bio-Rad SoAdvanced™ universal SYBR green supermix and CFX connect real-time system were used for PCR analysis. Results were corrected by β-actin or GAPDH. DNA primers are listed as follows: • Mouse ifn-β: […]

[2] = tested on: STING R232H variant in THP1 cells; test: IFN-β-Luc expression in THP1 cells harboring STING R232H; format: cell-based, human
Text: as §1

[3] = tested on: STING; test: Time course of STING puncta, signaling and degradation in GFP-STING MEF and THP1 cells; format: cell-based
Text: as §2
Western blot analysis. […] Briefly, cells were lysed in SDS sample buffer (with protease and phosphatase inhibitor cocktail) and heated for denaturation. […] Electro transfer was performed using 100 V for 60 min on ice. After transfer, the membrane was blocked either in 5% non-fat milk or BSA (phosphorylated protein) for 1 h at room temperature, and incubated with primary antibody overnight at 4° C. HRP-linked secondary antibody (Bio-Rad) was used for 1 h at room temperature before detection on X-ray film (GE Healthcare). Membrane was stripped in stripping buffer for 30 min and reused for […] (Sigma Aldrich) detection.
as §3

[4] = tested on: B16-F10 melanoma tumor model; test: Interferon-stimulated gene expression in B16-F10 tumor-bearing mice; format: in vivo, mouse
Description: RT-qPCR. […] Results were corrected by β-actin or GAPDH.
Mice were subcutaneously inoculated with B16F10 melanoma cells (1.0×10^5) or TC-1 cells (1.0×10^5) into the right flank. […] Mice were euthanized one-day post-injection, and tumors and draining lymph nodes were collected. Total RNAs were extracted by TRIzol (Invitrogen), and the expressions of interferon-stimulated genes (ifn-β, cxcl10, tnf-α, and irf7) were measured via RT-qPCR.

[5] = tested on: TC-1 tumors; test: Tumor therapy, TC-1 tumor model; format: in vivo, mouse; conditions: TC-1, intratumoral, four injections, versus 5% glucose
Description: Tumor therapy experiments. Mice were subcutaneously inoculated with MC38 cells (1.0×10^6) or TC-1 cells (1.0×10^5) into the right flank. Tumor size was measured every other day via a digital caliper, and tumor volume was calculated as 0.5×length×width^2. […] Mice were injected 3× in MC38 model and 4× in TC-1 model with treatments spaced 4 d apart. Mice were euthanized at a tumor burden endpoint of 2,000 mm^3.

[6] = tested on: resected human tissues (squamous cell carcinoma from the base of tongue, cervical tumor tissues, sentinel lymph node); test: STING activation in freshly resected human tissues; conditions: ex vivo injection, 24 h at 37° C.; cGAMP 80 ng, PC7A 50 μg
Text: as §3

For `Nc1nc2c(ncn2[C@@H]2O[C@@H]3COP(=O)(O)OC4C(O)[C@H](n5cnc6c(N)ncnc65)O[C@@H]4COP(=O)(O)OC2C3O)c(=O)[nH]1` (stereo partly drawn) [cGAMP, cyclic guanosine monophosphate-adenosine monophosphate], the “condensate structures, TBK1 phosphorylation and ifn-β/cxcl10 expression” value [1] was “did not impact cGAMP-mediated STING activation”, the IFN-β-Luc expression [2] was “abrogated” and the “time of peak immune response after stimulation” value [3] was “around 6 h”. The “time to STING degradation” value ([3]; STING-GFP MEFs) was no more than 12 h, the “p-TBK1/p-IRF3 production and proinflammatory cytokine expression” value ([3]; in the presence of brefeldin A (BFA, 10 μM)) was “fail to trigger p-TBK1/p-IRF3 production and proinflammatory cytokine expression” and the “STING activation in draining lymph nodes” value ([4]; intratumoral injection, cGAMP high dose 2.5 μg) was “minimal STING activation”. The “interferon-stimulated gene expression (ifn-β, cxcl10, tnf-α, irf7) in tumor” value ([4]; single intratumoral injection, 24 hours, PC7A 50 μg, cGAMP low dose 0.5 μg) was “failed to induce interferon-stimulated gene expressions”, the “extension of median survival” value [5] was 4 days and the “ifn-β and cxcl10 mRNA expression over control” value [6] was “marginal effect”.
